Data published in US8389544B2, “Isoquinolone compounds as subtype-selective agonists for melatonin receptors MT1 and MT2” (The Hong Kong University of Science and Technology, priority 2007, dated 2013).
Read-outs that look alike come from different tables or passages of the source.

Tests used:
Parameters in all cases: expressed in transfected cells
MT1 receptor [1] = target: T1, MT1 receptor (Homo sapiens, UniProt P48039); assay: CRE-Luc (luciferase reporter gene) assay, MT1; format: cell-based; details: HEK 293-pCREluc cells with MT1; inhibition of forskolin response
Experimental: The luciferase reporter gene assay offers another way to measure melatonin receptor activation. Cells expressing cAMP-responsive element-driven luciferase reporter gene (293-pCREluc) and either the MT1 or MT2 receptor are treated with forskolin (a substance which stimulates cAMP production as well as the subsequent luciferase gene expression) alone or with a novel isoquinolone compound. As melatonin receptor activation inhibits cAMP production, any suppression in the expression of luciferase leads to a decrease in enzymatic activities and a reduction in the amount of luminescence signal generated.
The luciferase assay, a reporter gene assay, was performed to confirm the ability of the invention to activate the melatonin receptors. Prior to the assay, HEK (human embryonic kidney) 293 cells are stably transfected with cAMP-responsive element-driven luciferase reporter gene (293-pCREluc) and cDNAs encoding MT1 or MT2 receptors. The cells are then exposed to the novel isoquinolone compounds, after which the substrate luciferin is added and the resulting luminescence measured.
Prior to the assay human embryonic kidney (HEK) 293 cells (CRL-1573, ATCC) is maintained at 37° C. in minimum essential medium (MEM) supplemented with 10% fetal bovine serum (FBS), 100 units/ml penicillin and 100 μg/ml streptomycin in a humidified atmosphere containing 5% CO2. Human embryonic kidney 293 cells stably transfected with cAMP-responsive element-driven luciferase reporter gene (293-pCREluc) are established and maintained in growth medium supplemented with 300 μg/ml G418 sulphate.
For luciferase assays, HEK-293 cells stably expressing pCRE-luciferase are seeded at a density of 15,000 cells/well into 96 well plates. Transfection is carried out using Lipofectamine Plus® reagent at 0.2 μl of both Plus and lipofectamine reagents with 50 ng cDNAs encoding MT1 or MT2 receptors per well. After a 3 hour transfection period at 37° C., 50 μl of DMEM with 20% fetal calf serum (FCS) is added into the wells and the plate is incubated at 37° C. for 48 h prior to 24 hour serum starvation. […]
Cells are harvested by replacing medium in the well by 50 μl luciferase lysis buffer. The Berthold microplate luminometer is maintained at 25° C. throughout the assay. Injector M connected to an empty tube and P connected to the drug tube are set to inject 25 μl of luciferin into appropriate wells. A 1.6 second delay time followed by a 1 second measuring time period is assigned to injector M, whereas injector P is measured for 10 seconds after luciferase substrate is introduced into the well. Results are expressed as relative luminescent units (RLU). Where indicated, agonist-induced activity is expressed as a percentage of the RLU obtained with forskolin.

MT1 receptor [2] = target: T1, MT1 receptor; assay: Competitive [3H]melatonin binding assay, MT1; details: displacement of 1 nM [3H]melatonin, HEK-293 cells; log value, negative; NSB = No significant binding
Experimental: (§1) Competitive ligand binding assays were performed to examine the receptor binding characteristics of the novel isoquinolone compounds. The assay measures the ability of the novel isoquinolone compounds to bind and displace the radiolabelled endogenous ligand, [^3H]melatonin. Increasing concentrations of the novel compounds are added to displace the [^3H]melatonin-bound to MT1 or MT2 receptor-expressing cells.
(§2) 4. Competitive Binding Assay
(§3) The ability of compounds to bind to MT1 and/or MT2 receptors is determined using radioligand binding assays. […] 48 hours following transfection, cells are harvested in binding buffer (50 mM Tris-HCl, 2 mM MgCl2, 1 mM EDTA, pH 7.4). 100,000 cells are incubated with 1 nM [^3H] melatonin (specific activity: 83 Ci/mmol; GE Healthcare) and appropriate concentrations (0.1 nM to 1 μM) of unlabelled ligands in a total volume of 100 μl in 96-well plates (PerkinElmer Life And Analytical Sciences, Inc., Boston, Mass.) for 2 hours at room temperature. Reactions are terminated by rapid filtration through a 96-well cell harvester onto 96-well GF/C filter mats. Filters are washed with 500 μl of ice-cold binding buffer, dried and sealed in a polyethylene bag with 3.5 ml of scintillation fluid and counted for tritium in a Microbeta Jet scintillation counter. […] Data are analyzed by nonlinear least-squares regression using GraphPad Prism 3.02.

MT2 receptor = target: T2, MT2 receptor (Homo sapiens, UniProt P49286); assay: Competitive [3H]melatonin binding assay, MT2; details: displacement of 1 nM [3H]melatonin
T2 sequence (P49286 1-362): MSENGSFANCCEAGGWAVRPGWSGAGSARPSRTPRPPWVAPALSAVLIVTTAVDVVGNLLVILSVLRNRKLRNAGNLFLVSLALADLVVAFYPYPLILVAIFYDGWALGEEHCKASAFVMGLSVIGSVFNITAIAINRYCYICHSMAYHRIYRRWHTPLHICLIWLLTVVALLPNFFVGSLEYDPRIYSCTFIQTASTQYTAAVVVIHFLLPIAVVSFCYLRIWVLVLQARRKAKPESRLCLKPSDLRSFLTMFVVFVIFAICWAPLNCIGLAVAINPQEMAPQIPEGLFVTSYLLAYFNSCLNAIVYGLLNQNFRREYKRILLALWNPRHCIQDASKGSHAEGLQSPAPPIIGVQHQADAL
Experimental: as §1, §2, §3

[3] = HEK-293 cells, log value, negative, NSB = No significant binding
[4] = unit inferred, read-out: Binding Assay MT2 IC50

T1 sequence (P48039 whole entry): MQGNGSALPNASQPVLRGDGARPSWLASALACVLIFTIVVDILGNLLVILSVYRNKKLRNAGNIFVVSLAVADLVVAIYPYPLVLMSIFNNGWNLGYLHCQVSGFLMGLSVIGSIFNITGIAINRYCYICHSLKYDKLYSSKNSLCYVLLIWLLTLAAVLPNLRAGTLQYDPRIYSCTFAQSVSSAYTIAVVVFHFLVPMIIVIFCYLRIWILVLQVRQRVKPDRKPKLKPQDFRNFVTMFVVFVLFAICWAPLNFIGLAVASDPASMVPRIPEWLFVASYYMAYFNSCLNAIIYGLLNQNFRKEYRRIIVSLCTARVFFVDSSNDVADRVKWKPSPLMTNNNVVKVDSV

SMILES: COc1cc(COc2c(OC)ccc3c(=O)n(C)ccc23)cc(OC)c1 [IS528]
- CRE-Luc Assay MT1 % Inh ± SEM of 1 μM Fsk (MT1 receptor [1]): 69.7 ± 10.1%
- Binding Assay MT1 logIC50 ± SEM (MT1 receptor [2]): NSB
- Binding Assay MT2 logIC50 ± SEM (MT2 receptor; [3]): NSB

SMILES: COc1cc(COc2cc3c(=O)n(C)ccc3cc2OC)cc(OC)c1 [IS523]
- CRE-Luc Assay MT1 % Inh ± SEM of 1 μM Fsk (MT1 receptor [1]): 70.4 ± 5.6%
- Binding Assay MT1 logIC50 ± SEM (MT1 receptor [2]): NSB
- Binding Assay MT2 logIC50 ± SEM (MT2 receptor; [3]): NSB

SMILES: COc1cc2ccn(C)c(=O)c2cc1OCc1ccc(C(C)(C)C)cc1 [IS526]
- CRE-Luc Assay MT1 % Inh ± SEM of 1 μM Fsk (MT1 receptor [1]): 36.2 ± 11.8%
- Binding Assay MT1 logIC50 ± SEM (MT1 receptor [2]): NSB
- Binding Assay MT2 logIC50 ± SEM (MT2 receptor; [3]): NSB

SMILES: COc1cccc(COc2c(OC)ccc3c(=O)n(C)ccc23)c1 [IS527]
- CRE-Luc Assay MT1 % Inh ± SEM of 1 μM Fsk (MT1 receptor [1]): 82.4 ± 6.4%
- Binding Assay MT1 logIC50 ± SEM (MT1 receptor [2]): NSB
- IC50 (MT2 receptor; HEK-293 cells, log value, negative, NSB = No significant binding, read-out: Binding Assay MT2 logIC50 ± SEM (converted)): 0.117 µM
- IC50 (MT2 receptor; [4]): 0.108 µM

SMILES: COc1cccc(COc2cc3ccn(C)c(=O)c3cc2OC)c1 [IS044]
- CRE-Luc Assay MT1 % Inh ± SEM of 1 μM Fsk (MT1 receptor [1]): 82.3 ± 6.0%
- Binding Assay MT1 logIC50 ± SEM (MT1 receptor [2]): NSB

SMILES: Cn1ccc2cc(OC(=O)c3ccccc3)c(OC(=O)c3ccccc3)cc2c1=O [IS039]
- CRE-Luc Assay MT1 % Inh ± SEM of 1 μM Fsk (MT1 receptor [1]): 73.0 ± 5.0%
- Binding Assay MT1 logIC50 ± SEM (MT1 receptor [2]): NSB
- Binding Assay MT2 logIC50 ± SEM (MT2 receptor; [3]): NSB

SMILES: COc1cccc(COc2cc3c(=O)n(C)ccc3cc2OC)c1 [IS521]
- CRE-Luc Assay MT1 % Inh ± SEM of 1 μM Fsk (MT1 receptor [1]): 84.2 ± 5.5%
- Binding Assay MT1 logIC50 ± SEM (MT1 receptor [2]): NSB
- IC50 (MT2 receptor; [4]): 0.145 µM

SMILES: COc1ccc2c(=O)n(C)ccc2c1OCc1ccc(C)cc1 [IS529]
- CRE-Luc Assay MT1 % Inh ± SEM of 1 μM Fsk (MT1 receptor [1]): 67.7 ± 5.4%
- Binding Assay MT1 logIC50 ± SEM (MT1 receptor [2]): NSB
- Binding Assay MT2 logIC50 ± SEM (MT2 receptor; [3]): NSB

SMILES: COc1cc(COc2cc3ccn(C)c(=O)c3cc2OC)cc(OC)c1 [IS042]
- CRE-Luc Assay MT1 % Inh ± SEM of 1 μM Fsk (MT1 receptor [1]): 73.9 ± 7.8%
- Binding Assay MT1 logIC50 ± SEM (MT1 receptor [2]): NSB
- Binding Assay MT2 logIC50 ± SEM (MT2 receptor; [3]): NSB
